Test results published in patent US7183075B2, “Purified and isolated potassium-chloride cotransporter nucleic acids and polypeptides and therapeutic and screening methods using same” (Vanderbilt University, priority 2000, dated 2007).
Where two headings read alike, the source gives them in different places.

Molecular target: T1, mKCC4 (Mus musculus, UniProt Q9WVL3)
T1 construct: a full-length mKCC4 cDNA was used as a standard in the Xenopus expression vector pGEMHE; expressed in transfected cells; host or cells: Xenopus laevis oocytes injected with cRNA (pGEMHE, T7 transcript)
T1 sequence (Q9WVL3 1-1083 L71X/L155X/L467X/L586X/L639X/L1023X): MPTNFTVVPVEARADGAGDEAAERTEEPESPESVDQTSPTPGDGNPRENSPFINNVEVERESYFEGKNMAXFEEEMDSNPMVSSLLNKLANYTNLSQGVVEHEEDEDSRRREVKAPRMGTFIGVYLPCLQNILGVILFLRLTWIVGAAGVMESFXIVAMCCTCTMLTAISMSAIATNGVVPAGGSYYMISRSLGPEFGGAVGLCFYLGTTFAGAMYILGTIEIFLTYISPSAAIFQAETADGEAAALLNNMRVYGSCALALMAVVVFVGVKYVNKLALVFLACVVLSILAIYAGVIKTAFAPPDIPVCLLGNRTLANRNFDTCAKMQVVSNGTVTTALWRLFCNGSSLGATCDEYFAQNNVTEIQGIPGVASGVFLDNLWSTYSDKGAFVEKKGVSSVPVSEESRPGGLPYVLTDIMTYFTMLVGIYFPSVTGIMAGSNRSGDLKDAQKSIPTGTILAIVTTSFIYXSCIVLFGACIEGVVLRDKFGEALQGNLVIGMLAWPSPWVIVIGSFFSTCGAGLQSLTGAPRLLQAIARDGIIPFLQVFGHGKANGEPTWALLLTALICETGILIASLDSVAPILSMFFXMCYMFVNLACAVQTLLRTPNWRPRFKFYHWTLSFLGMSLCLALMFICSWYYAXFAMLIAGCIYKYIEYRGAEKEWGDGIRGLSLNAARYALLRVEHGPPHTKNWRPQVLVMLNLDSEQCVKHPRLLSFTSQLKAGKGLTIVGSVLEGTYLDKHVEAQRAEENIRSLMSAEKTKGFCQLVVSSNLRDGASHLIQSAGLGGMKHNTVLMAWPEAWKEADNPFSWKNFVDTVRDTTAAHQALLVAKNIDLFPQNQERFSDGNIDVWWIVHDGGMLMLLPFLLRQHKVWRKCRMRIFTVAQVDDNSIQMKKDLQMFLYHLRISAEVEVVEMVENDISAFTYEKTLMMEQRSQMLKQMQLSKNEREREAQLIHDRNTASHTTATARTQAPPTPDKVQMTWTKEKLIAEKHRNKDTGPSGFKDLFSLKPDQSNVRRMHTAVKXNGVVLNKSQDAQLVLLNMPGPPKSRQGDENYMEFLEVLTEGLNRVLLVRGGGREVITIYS
Test: 86Rb+ uptake (K+-Cl- cotransport) in Xenopus oocytes injected with mKCC4 cRNA
Type: cell-based
Details: for KCC4 function remaining: 100 μM DIDS; for relative KCC4 activity: 2 mM diuretic; for effect on activation of KCC4 by cell swelling: calyculin A 100 nM, okadaic acid 1 nM, cypermethrin 100 pM
Experimental: Oocytes were surgically collected from anesthetized female Xenopus adults under 0.17% tricaine and incubated for 1 hour with vigorous shaking in frog Ringer ND96 (96 mM sodium chloride, 2 mM potassium chloride, 1.8 mM calcium chloride, 1.0 mM magnesium chloride, and 5 mM Hepes/Tris, pH 7.4) in the presence of 2 mg/ml collagenase B. Oocytes were then washed four times in ND96, manually defolliculated, and incubated overnight in ND96 at 18° C. On the next day, defolliculated stage V–VI oocytes were injected with 50 nl of water or a solution containing cRNA at a concentration of 0.25–0.5 μg/μl (25 ng/oocyte). Oocytes were incubated at 17–18° C. in ND96 (96 mM sodium chloride, 2 mM potassium chloride, 1.8 mM calcium chloride, 1.0 mM magnesium chloride, and 5 mM Hepes/Tris, pH 7.4), supplemented with 2.5 mM sodium pyruvate and 5 mg/100 ml gentamicin, for 3–4 days. The incubation medium was changed every 24 hours. On the day of the experiment, oocytes were switched to Cl^−-free ND96 (96 mM Na^+ Na^+ isethionate, 2 mM K^+ gluconate, 6 mM Ca^2+ gluconate, 1 mM Mg^2+ gluconate, 5 mM Hepes, 2.5 mM sodium pyruvate, 5 mg/100 ml gentamicin, pH 7.4) for 2 hours prior to the uptake assay.
For functional expression and in vitro translation, a full-length mKCC4 cDNA was used as a standard in the Xenopus expression vector pGEMHE (Liman et al. (1992) Neuron 9:861–871). The resulting construct contains nucleotides 55–3812 of mKCC4 (SEQ ID NO:13). For functional comparison with mKCC4, a full-length rabbit KCC1 cDNA was subcloned into pGEMHE. […] […] Transcription product integrity was confirmed on agarose gels, and concentration was determined by absorbance reading at 260 nm (DU 640 available from Beckman of Fullerton, Calif.).
K^+—Cl^− cotransport was assessed by measuring tracer ^86Rb^+ uptake (NEN® Life Science Products of Boston, Mass.) in experimental groups of at least 15 oocytes. […] All uptake solutions also contained 1.8 mM CaCl2, 1 mM MgCl2, 5 mM Hepes, pH 7.4, and were supplemented with 1 mM ouabain and […] ^86Rb^+. Isotonic conditions were generated by supplementing the same solutions with 3.5 g/100 ml sucrose to reach isosmolar conditions for oocytes (˜210 mOsm/kg). Ouabain was added to prevent ^86Rb^+ uptake via the Na^+—K^+-ATPase. The absence of extracellular Na^+ and the hypotonicity of the uptake medium prevented ^86Rb^+ uptake via the endogenous Na^+—K^+-2Cl^− cotransporter that is present in oocytes (Gamba et al. (1994) J Biol Chem 269:17713–17722).
All uptake assays were performed at 32° C. At the end of the uptake period, oocytes were washed five times in ice-cold uptake solution without isotope to remove extracellular fluid tracer. Oocytes were dissolved in 10% SDS, and tracer activity was determined for each oocyte by β-scintillation counting.
To determine the ion transport kinetics of KCC4 and KCC1, ^86Rb^+ uptake experiments were performed in variable concentrations of K^+ and Cl^−. […]

[1] = KCC4, counterion fixed at 50 mM, hypotonic
[2] = KCC4, counterion fixed at 50 mM, hypotonic, read-out: calculated apparent Km for extracellular ion concentration
[3] = 2 mM extracellular K+, hypotonic
[4] = 50 mM extracellular K+, hypotonic

Q: For `[Ba+2].[Cl-].[Cl-]` [BaCl2], which “KCC4-induced influx, % of uptake in control oocytes” value (10 mM BaCl2 in hypotonic uptake medium) is on record?
A: 58±4.3%

Q: Which Hill coefficient (KCC4) does the source give for `Cl` [Chloride] here?
A: 1.06±0.3

Q: What about the “calculated apparent Vmax for extracellular ion concentration” value [1] of the same compound?
A: 41,440±4,174 pmol×oocyte^−1×hour^−1

Q: And the Km [2]?
A: 16.1 ± 4.2 mM

Q: And the Km (KCC4, read-out: Chloride Km)?
A: 15.3 mM

Q: Which KCC4 function remaining [3] does the source give for `O=S(=O)(O)c1cc(N=C=S)ccc1C=Cc1ccc(N=C=S)cc1S(=O)(=O)O` [DIDS] here?
A: 65±10%

Q: And the KCC4 function remaining [4]?
A: 13±4%

Q: `CCCCC1(C2CCCC2)Cc2cc(OCC(=O)O)c(Cl)c(Cl)c2C1=O` (stereo not drawn) [DIOA] was tested. Which “effect on KCC4-induced 86Rb+ uptake” value (100 μM DIOA, hypotonic) did it give?
A: inhibition

Q: Which “reduction of KCC4-induced 86Rb+ uptake” value (1 mM NEM, hypotonic) does the source give for `CCN1C(=O)C=CC1=O` [NEM, N-ethylmaleimide] here?
A: 68%

Q: And the “fold activation of KCC4” value (1 mM NEM, isotonic)?
A: 5 fold

Q: What about the “86Rb+ uptake in NEM-treated group” value (KCC4, 1 mM NEM, isotonic) of the same compound?
A: 1062±70 pmol×oocyte^−1×hour^−1

Q: Which Hill coefficient (KCC4) does the source give for `[K+]` [Potassium] here?
A: 1.08±0.2

Q: What about the “calculated apparent Vmax for extracellular ion concentration” value [1] of the same compound?
A: 32,370±2,115 pmol×oocyte^−1×hour^−1

Q: And the Km [2]?
A: 17.5 ± 2.7 mM

Q: What about the Km (KCC4, read-out: Potassium Km) of the same compound?
A: 17.5 mM

Q: For `CCCCNc1cc(C(=O)O)cc(S(N)(=O)=O)c1Oc1ccccc1` [bumetanide], which “relative KCC4 activity” value [3] is on record?
A: 90±4%

Q: What about the “relative KCC4 activity” value [4] of the same compound?
A: 17±4%

Q: And the IC50 (KCC4, 10 mM extracellular K+, read-out: apparent half-maximal inhibition (K=0.5) of Cl−-dependent 86Rb+ uptake)?
A: ~900 µM

Q: `COC[C@@H]([C@H](O)[C@H](O)C(=O)NCC[C@H](C)c1nc(/C=C/C[C@@H]2O[C@]3(C[C@@H](O)[C@@H]2C)O[C@H]([C@H](C[C@H](O)[C@H](C)[C@H](O)[C@H](C)/C=C(C)/C(C)=C/C=C/C(C)=C\C#N)OC)[C@H](OP(=O)(O)O)C3(C)C)co1)N(C)C` [calyculin A] was tested. Which “effect on activation of KCC4 by cell swelling” value (“effect on activation of KCC4” below) (hypotonic) did it give?
A: completely prevents the activation

Q: How did the “effect on activation of KCC4” value (hypotonic) turn out when `CC1(C)C(C=C(Cl)Cl)C1C(=O)OC(C#N)c1cccc(Oc2ccccc2)c1` (stereo not drawn) [cypermethrin] was run?
A: neither okadaic acid, nor cypermethrin prevented this activation

Q: `C=C1[C@@H](O)[C@@H]2O[C@]3(CC[C@H](/C=C/[C@@H](C)[C@@H]4CC(C)=C[C@@]5(O[C@H](C[C@@](C)(O)C(=O)O)CC[C@H]5O)O4)O3)CC[C@H]2O[C@@H]1[C@@H](O)C[C@H](C)[C@H]1O[C@@]2(CCCCO2)CC[C@H]1C` [okadaic acid] was tested. Which “effect on activation of KCC4” value (hypotonic) did it give?
A: neither okadaic acid, nor cypermethrin prevented this activation

Q: Which results are given for `NS(=O)(=O)c1cc2c(cc1Cl)NC(C(Cl)Cl)NS2(=O)=O` (stereo not drawn) [trichlormethiazide]?
A: relative KCC4 activity [3]: 79±3%; relative KCC4 activity [4]: 57±9%

Q: HgCl2 [Hg—Cl2] was tested. Which “response of KCC4 to mercury” value (50 μM HgCl2, hypotonic) did it give?
A: sensitive
